Experimental data as given in publication PMC13195669, “GPR3 Ligands Discovered through Combined Virtual and Conformational Biosensor-Based Screening” (Journal of the American Chemical Society, 2026).

Target: T1, cannabinoid receptor 1 (CB1R) (Homo sapiens, UniProt P21554)
T1 construct: expressed in transfected cells; host or cells: HEK293A, transient
Assay: cAMP GloSensor 22F, agonist-stimulated CB1R
Assay type: cell-based
Settings: preincubation with 100 μM or 10 μM; 10 µM forskolin
Experimental: Next, we used the classical cAMP GloSensor technology to assess the target selectivity profile of 33. […] In addition, we tested the effects of 33 on cAMP changes mediated by agonist-stimulated GPCRs phylogenetically close to GPR3 and coupling to Gs or Gi/o proteins.
BRET-based GPCR conformational sensor experiments
Cells expressing the conformational GPCR biosensors were grown for 24 h (stable cells) or 48 h (transiently transfected cells) in white 96-well plates and washed with 100 µl of HBSS. After washing, cells were incubated for 2 minutes with a 1/1000 solution of the furimazine stock solution (Promega; cat. no. N1662). Three baseline BRET reads were recorded and averaged prior to the addition of serial dilutions of ligands or veh icle control and subsequent BRET reads. […] BRE T donor emission was quantified with a 470/80 nm monochromator. […] Experiments were carried out using a CLARIOstar plate reader.
FRET- and BRET-based measurements of cAMP levels and Gs dissociation/reassociation Transfected cells grown in black 96-well plates were washed twice with 100 µl of HBSS 48 h after transfection and incubated with HBSS. […] Three baseline FRET/BRET reads were recorded and averaged prior to the addition of serial dilutions of ligands or vehicle control and sub-sequent FRET/BRET reads. […] FRET donor emission was quantified with a 480/10 nm filter. […]
Luminescence measurement using the cAMP GloSensor™ 22F […]

T1 sequence (P21554 whole entry, species assumed): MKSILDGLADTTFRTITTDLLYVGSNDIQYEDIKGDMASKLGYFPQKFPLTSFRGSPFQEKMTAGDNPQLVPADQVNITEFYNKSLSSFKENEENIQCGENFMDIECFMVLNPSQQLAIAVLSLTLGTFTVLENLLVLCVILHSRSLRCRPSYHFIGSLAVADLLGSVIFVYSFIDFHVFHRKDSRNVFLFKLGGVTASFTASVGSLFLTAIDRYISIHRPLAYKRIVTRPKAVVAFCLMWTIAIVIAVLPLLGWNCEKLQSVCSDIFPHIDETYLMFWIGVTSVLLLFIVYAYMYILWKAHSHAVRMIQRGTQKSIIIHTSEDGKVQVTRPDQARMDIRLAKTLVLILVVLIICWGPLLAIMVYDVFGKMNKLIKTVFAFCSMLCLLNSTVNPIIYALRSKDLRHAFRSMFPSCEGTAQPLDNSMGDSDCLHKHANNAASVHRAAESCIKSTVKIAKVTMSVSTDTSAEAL

N=c1n(Cc2ccccc2)c2ccccc2n1CC1CC1 [compound 33]
effect on agonist-induced cAMP change mediated by CB1R: neither 100 μM nor 10 μM 33 significantly altered
